The text below walks through data of the Biogen ADME set (Fang et al. 2023).

For the data set the following is noted: for aqueous solubility: pH 6.8.

For orientation: aqueous solubility means the concentration that dissolves in the medium under given conditions. A lower aqueous solubility goes with little dissolved substance.

≈ marks a conversion by molar mass, not a printed value.

In the case of `COCCN(C)c1ccc(CN2CCOC3(CCCC3)C2)cn1`, the MDR1-MDCK efflux ratio turned out to be 0.619; the intrinsic clearance, human liver microsomes was found to be 38.5 mL/min/kg; the intrinsic clearance, rat liver microsomes was 633 mL/min/kg.
In the case of `O=C1Nc2ccccc2O[C@H]2C[C@@H]1N(CC1CC1)C2`, the MDR1-MDCK efflux ratio worked out at 0.851; the intrinsic clearance, human liver microsomes was determined as 14.5 mL/min/kg; the intrinsic clearance, rat liver microsomes turned out to be 377 mL/min/kg; the aqueous solubility was 42.1 µg/mL (≈ 163 µM).
As for `CN(C)CC(=O)N1CCC(c2ccc(NC(=O)c3nc(C#N)c[nH]3)c(C3=CCCCC3)c2)CC1`, the MDR1-MDCK efflux ratio was 42.6; the intrinsic clearance, human liver microsomes was found to be 12.4 mL/min/kg; the intrinsic clearance, rat liver microsomes came out at 56.3 mL/min/kg.
For `CC(C)Oc1ccc(C(=O)Nc2cccc(-c3nc4cnccc4o3)c2)cc1`, the aqueous solubility is 0.54 µg/mL (≈ 1.45 µM).
`CN(CCc1ccccn1)c1cnc2ccccc2n1`: the MDR1-MDCK efflux ratio is 0.64; the intrinsic clearance, human liver microsomes came to 86.3 mL/min/kg; the intrinsic clearance, rat liver microsomes was determined as 862 mL/min/kg; the aqueous solubility amounted to 44.5 µg/mL (≈ 169 µM).
The corresponding values for `CCc1nnc(NC(=O)Cc2cccc(F)c2)s1` are 0.912, 7.42 mL/min/kg, 76.3 mL/min/kg and 12.2 µg/mL (≈ 46 µM).
For the compound `CCc1cc2c(cc1N1CCC(N3CCOCC3)CC1)C(C)(C)c1[nH]c3cc(C#N)ccc3c1C2=O`, the MDR1-MDCK efflux ratio came to 11.8; the intrinsic clearance, human liver microsomes came out at 35.8 mL/min/kg; the intrinsic clearance, rat liver microsomes is 17.8 mL/min/kg; the aqueous solubility worked out at 11.7 µg/mL (≈ 24.2 µM).
`Cn1ccnc1CNc1cc(Br)ccc1-n1cccn1`: the MDR1-MDCK efflux ratio came to 0.841; the intrinsic clearance, human liver microsomes was 31.6 mL/min/kg; the intrinsic clearance, rat liver microsomes was found to be 291 mL/min/kg; the aqueous solubility amounted to 48.6 µg/mL (≈ 146 µM).
`CNC(=O)c1cn(C)nc1CC1CCN(Cc2cnc(-c3ccc(OC)cc3)nc2)CC1`: the MDR1-MDCK efflux ratio is 20.6; the intrinsic clearance, human liver microsomes is no more than 4.74 mL/min/kg; the intrinsic clearance, rat liver microsomes is 23.9 mL/min/kg; the aqueous solubility amounted to 57.5 µg/mL (≈ 132 µM).
Taken in the same sequence, the figures for `Cc1nnnn1CCN(C)c1ccccc1` were 0.596, 8.8 mL/min/kg, 221 mL/min/kg and 11.2 µg/mL (≈ 51.4 µM).
For `c1ccc(Cc2n[nH]c(CSc3ccccc3)n2)cc1`, the MDR1-MDCK efflux ratio was found to be 0.734; the intrinsic clearance, human liver microsomes came to 89.2 mL/min/kg; the intrinsic clearance, rat liver microsomes was determined as 1320 mL/min/kg; the aqueous solubility came out at 16.8 µg/mL (≈ 59.8 µM).
As to `Cc1cc(Nc2cc(N)ncn2)c(=O)n2c1C(=O)NC21CCCCC1`, the MDR1-MDCK efflux ratio amounted to 25.5; the intrinsic clearance, human liver microsomes is no more than 4.74 mL/min/kg; the intrinsic clearance, rat liver microsomes stood at 24.8 mL/min/kg.
Regarding `CCC(=O)NCc1cc(C2CC2)n(C2CCCC2)n1`, the MDR1-MDCK efflux ratio turned out to be 1.05; the intrinsic clearance, human liver microsomes came out at 10.1 mL/min/kg; the intrinsic clearance, rat liver microsomes was 218 mL/min/kg; the aqueous solubility turned out to be 25 µg/mL (≈ 95.7 µM).
Take `CC(=O)N1CCC(c2ccccn2)CC1`: the MDR1-MDCK efflux ratio is 0.791; the intrinsic clearance, human liver microsomes was no more than 4.74 mL/min/kg; the intrinsic clearance, rat liver microsomes is no more than 10.7 mL/min/kg; the aqueous solubility was determined as 48.3 µg/mL (≈ 237 µM).
The corresponding values for `CN(C)Cc1cccc(N/C(=C2\C(=O)Nc3cc(C(=O)N(C)C)ccc32)c2ccccc2)c1` are 45.4, 76.2 mL/min/kg, 152 mL/min/kg and 65.7 µg/mL (≈ 149 µM).
The compound `O=c1[nH]c2ccccc2n1C1CCN(Cc2nc(-c3cccs3)no2)CC1` showed an intrinsic clearance, human liver microsomes of 11.4 mL/min/kg and an intrinsic clearance, rat liver microsomes of 234 mL/min/kg.
In the case of `O=C(NCC1(N2CCCCC2)CCCC1)c1cnn[nH]1`, the MDR1-MDCK efflux ratio turned out to be 31.7; the intrinsic clearance, human liver microsomes was no more than 4.74 mL/min/kg; the intrinsic clearance, rat liver microsomes was no more than 10.7 mL/min/kg.
With `CC(C)n1cc(CN2CCC(c3nc(N(C)C)no3)CC2)cn1`, the MDR1-MDCK efflux ratio worked out at 1.79; the intrinsic clearance, human liver microsomes is no more than 4.74 mL/min/kg; the intrinsic clearance, rat liver microsomes came to 179 mL/min/kg.
As to `Cc1sc2ncnc(OCC(=O)NC3CCCCC3)c2c1C`, the MDR1-MDCK efflux ratio turned out to be 1.59; the intrinsic clearance, human liver microsomes was 34.8 mL/min/kg; the intrinsic clearance, rat liver microsomes is 377 mL/min/kg; the aqueous solubility was 17.2 µg/mL (≈ 54 µM).
Compound `COc1ccc(OC)c(C(=O)/C=C/c2ccccc2)c1` displayed an intrinsic clearance, human liver microsomes of 163 mL/min/kg and an intrinsic clearance, rat liver microsomes of 1960 mL/min/kg.
With `Cc1cccc(C)c1NCc1noc(C2CC2)n1`, the intrinsic clearance, human liver microsomes was found to be 203 mL/min/kg and the intrinsic clearance, rat liver microsomes worked out at 1540 mL/min/kg.
As to `Cc1c[nH]c2nccc(Oc3c(F)cc(Nc4cc(Cl)nc(N)n4)cc3F)c12`, the MDR1-MDCK efflux ratio was 2.53; the fraction unbound, human plasma amounted to 0.0006; the fraction unbound, rat plasma was determined as 0.00206; the intrinsic clearance, human liver microsomes was determined as 14.3 mL/min/kg. This compound also returned an intrinsic clearance, rat liver microsomes of 173 mL/min/kg.
In the case of `CC(C)c1nc2c(n1C)CCN(c1ncnc3ccsc13)C2`, the MDR1-MDCK efflux ratio amounted to 3.28; the intrinsic clearance, human liver microsomes is 21.7 mL/min/kg; the intrinsic clearance, rat liver microsomes is 567 mL/min/kg; the aqueous solubility turned out to be 54.4 µg/mL (≈ 173 µM).
On to `CS(=O)(=O)NCc1cc2n(n1)CCN(C1Cc3ccccc3C1)C2`, for which the MDR1-MDCK efflux ratio is 2.92; the intrinsic clearance, human liver microsomes is no more than 4.74 mL/min/kg; the intrinsic clearance, rat liver microsomes turned out to be 27.7 mL/min/kg.
For `CN(C(=O)c1cc(N2CCNC2=O)ccc1F)C1CCC(N)CC1` (stereo not given), the MDR1-MDCK efflux ratio was 1.02; the fraction unbound, human plasma worked out at 0.674; the intrinsic clearance, human liver microsomes was no more than 4.74 mL/min/kg.
Turning to `O=C(NCCNC(=O)c1cc(-c2ccccc2)nc2ccccc12)c1ccco1`, the MDR1-MDCK efflux ratio is 10; the intrinsic clearance, human liver microsomes is 58.6 mL/min/kg; the intrinsic clearance, rat liver microsomes was found to be 461 mL/min/kg; the aqueous solubility amounted to 37.6 µg/mL (≈ 97.7 µM).
For the compound `CCC(CC)NC(=O)c1ccc(C#N)c(C)n1`, the intrinsic clearance, human liver microsomes is 6.17 mL/min/kg; the intrinsic clearance, rat liver microsomes turned out to be 50 mL/min/kg; the aqueous solubility stood at 52.9 µg/mL (≈ 229 µM).
For the compound `COc1ccccc1CC(=O)NC1CCN(C)CC1`, the MDR1-MDCK efflux ratio turned out to be 6.13; the intrinsic clearance, human liver microsomes was no more than 4.74 mL/min/kg; the intrinsic clearance, rat liver microsomes is 54.6 mL/min/kg; the aqueous solubility was 43.2 µg/mL (≈ 165 µM).
Take `C=CCNc1ncc(-c2cnccn2)c(C2CC2)n1`: the MDR1-MDCK efflux ratio was determined as 0.531; the intrinsic clearance, human liver microsomes came to 13 mL/min/kg; the intrinsic clearance, rat liver microsomes turned out to be 734 mL/min/kg.
`Cc1ccsc1-c1nc(CN(C)CCc2cn[nH]c2)c(C)o1` showed an intrinsic clearance, human liver microsomes of 185 mL/min/kg; an intrinsic clearance, rat liver microsomes of 1210 mL/min/kg; an aqueous solubility of 55.7 µg/mL (≈ 176 µM).
For `O=c1oc2cccnc2n1Cc1cnn(-c2ccccc2)n1`, the intrinsic clearance, human liver microsomes was no more than 4.74 mL/min/kg and the intrinsic clearance, rat liver microsomes came out at 63.7 mL/min/kg.
Turning to `CC(C)N1CCC(O)(c2ccccc2F)CC1`, the MDR1-MDCK efflux ratio was 0.537; the intrinsic clearance, human liver microsomes is no more than 4.74 mL/min/kg; the intrinsic clearance, rat liver microsomes worked out at 362 mL/min/kg; the aqueous solubility was 41.5 µg/mL (≈ 175 µM).
As to `Nc1cncc(-c2ccc(CN3CCCCC3)cc2)c1`, the MDR1-MDCK efflux ratio is 0.743; the intrinsic clearance, human liver microsomes was 40.7 mL/min/kg; the intrinsic clearance, rat liver microsomes stood at 56.3 mL/min/kg; the aqueous solubility came to 26 µg/mL (≈ 97.1 µM).
For the compound `Cc1cccc2ncn(CCc3ncc[nH]3)c(=O)c12`, the MDR1-MDCK efflux ratio stood at 6.44; the intrinsic clearance, human liver microsomes was no more than 4.74 mL/min/kg; the intrinsic clearance, rat liver microsomes came out at 2240 mL/min/kg.
In turn, `COc1ccc(-c2csc(CC(N)=O)n2)cc1Br` returned an aqueous solubility of 37.5 µg/mL (≈ 115 µM).
For `CSc1ccc(-c2ccc3n(c2=O)C[C@H]2C[C@@H]3CN(C(=O)c3ccncc3)C2)cc1`, the MDR1-MDCK efflux ratio came to 44; the intrinsic clearance, human liver microsomes amounted to 54 mL/min/kg; the intrinsic clearance, rat liver microsomes amounted to 357 mL/min/kg; the aqueous solubility is 37.5 µg/mL (≈ 89.8 µM).
For the compound `CC(C)CC(=O)N1CCC(Cc2cccc(-c3cncnc3)c2)(C(=O)NC(C)C)CC1`, the MDR1-MDCK efflux ratio was determined as 71.8; the intrinsic clearance, human liver microsomes worked out at 199 mL/min/kg; the intrinsic clearance, rat liver microsomes worked out at 694 mL/min/kg; the aqueous solubility amounted to 137 µg/mL (≈ 324 µM).
In the case of `Cc1ccc2c(c1)C(=O)CC1(CCN(C(=O)c3ccc4nc(C)cc(O)c4c3)CC1)O2`, the MDR1-MDCK efflux ratio was 30.1; the intrinsic clearance, human liver microsomes amounted to 18.4 mL/min/kg; the intrinsic clearance, rat liver microsomes came out at 119 mL/min/kg; the aqueous solubility turned out to be 20.2 µg/mL (≈ 48.5 µM).
The compound `Cc1cc(N(C)CC(C)(C)O)ncc1Br` displayed an intrinsic clearance, human liver microsomes of 36.1 mL/min/kg and an intrinsic clearance, rat liver microsomes of 970 mL/min/kg.
`CCOC(=O)c1ccc(S(=O)(=O)N2CCc3cc(C(=O)OC)ccc32)cc1`: the aqueous solubility is 0.83 µg/mL (≈ 2.13 µM).
Take `CC(=O)Nc1cccc(OCC(=O)N2CCCCC2)c1`: the MDR1-MDCK efflux ratio was 11.9; the intrinsic clearance, human liver microsomes was no more than 4.74 mL/min/kg; the intrinsic clearance, rat liver microsomes was 126 mL/min/kg; the aqueous solubility came to 42.4 µg/mL (≈ 153 µM).
